The results in this text go back to patent US20250179436A1, “HUMAN FATTY-LIVER MODEL CELLS” (PhoenixBio Co., Ltd., priority 2019, published 2025).

The test system of data set [1] is PXB-cells. Put plainly: Human albumin content in culture supernatant of PXB-cells (immunoturbidimetric method), toxicity index. In kind it is cell-based. The settings on record: 2 days.
In data set [2] the test system is PXB-cells. Description: Total neutral fat of lipoproteins in culture supernatant of PXB-cells cultured with or without DMSO. The data set is classed as cell-based, human. The settings on record: 2% DMSO, PXB-cells cultured 5 days. The procedure: The following day of seeding, medium A was removed. Instead, 500 μL of medium B (DMSO (+)) or medium C (DMSO (−)) was added. The plate was gently placed in an incubator (37° C., 5% CO2) and the cells were cultured for 5 days. After completion of culture, an image of the cells was taken by a photomicrographic camera. Then, the culture supernatant was recovered and subjected to analysis for lipoprotein in the culture supernatant described below. Lipoproteins contained in the culture supernatants of PXB-cells, HepG2 cells and HuH7 cells were analyzed by using LipoSEARCH (registered trademark) method (Skylight Biotech, Inc.). After completion of the culture mentioned above, the medium used in the culture was removed and 500 μL of medium D for analysis was added. The culture plate was gently placed in an incubator (37° C., 5% CO2) and the cells were cultured for 2 days. Thereafter, the culture supernatant was recovered, lipoproteins contained in the culture supernatant (80 μL) were fractionated into 4 types of subgroups, CM, VLDL, LDL and HDL fractions, by gel filtration HPLC. Cholesterol and neutral fat (triglyceride) contained in individual fractions were quantified by online enzyme reactions. […]

Data set [3] deals with PXB-cells. Put plainly: Fat droplets in PXB-cells cultured in medium with or without DMSO (photomicrograph). The data set is classed as cell-based, human. The conditions noted are these: 2% DMSO, PXB-cells cultured 5 days. The procedure:
The following day of seeding, medium A was removed. Instead, 500 μL of medium B (DMSO (+)) or medium C (DMSO (−)) was added. The plate was gently placed in an incubator (37° C., 5% CO2) and the cells were cultured for 5 days. After completion of culture, an image of the cells was taken by a photomicrographic camera. Then, the culture supernatant was recovered and subjected to analysis for lipoprotein in the culture supernatant described below.

Data set [4] has as its system PXB-cells. Put plainly: Screening test: total cholesterol and total neutral fat (triglyceride) in culture supernatant of PXB-cells (LipoSEARCH). In kind it is cell-based, human. The settings on record: lomitapide 1, 10, 100 μM, 2 days; PXB-cells pre-cultured 12 days in medium B (DMSO (+)); vs ethanol control. The procedure: Lipoproteins contained in the culture supernatants of PXB-cells, HepG2 cells and HuH7 cells were analyzed by using LipoSEARCH (registered trademark) method (Skylight Biotech, Inc.).
After completion of the culture mentioned above, the medium used in the culture was removed and 500 μL of medium D for analysis was added. The culture plate was gently placed in an incubator (37° C., 5% CO2) and the cells were cultured for 2 days. Thereafter, the culture supernatant was recovered, lipoproteins contained in the culture supernatant (80 μL) were fractionated into 4 types of subgroups, CM, VLDL, LDL and HDL fractions, by gel filtration HPLC. Cholesterol and neutral fat (triglyceride) contained in individual fractions were quantified by online enzyme reactions. […]
Each test substance was suspended with ethanol and added in a predetermined amount to a PXB-cell culture, gently placed in an incubator (37° C., 5% CO2) and cultured for 2 days. After completion of culture, the total cholesterol and total neutral fat (triglyceride) in culture supernatant and in cells were measured in accordance with the methods described in the sections “Analysis of lipoprotein in culture supernatant” and “Analysis of lipoprotein in cells”. […]

Data set [5] has as its system PXB-cells. Put plainly: Screening test: total cholesterol and total neutral fat (triglyceride) in PXB-cells (Cholestest). The data set is classed as cell-based, human. The settings on record: lomitapide 1, 10, 100 μM, 2 days; PXB-cells pre-cultured 12 days in medium B (DMSO (+)); vs ethanol control. The procedure: Triglyceride in cells was measured by use of Cholestest (registered trademark) TG (Sekisui Medical Co., Ltd.) in accordance with the instruction by the manufacturer. More specifically, the cells were washed with PBS, and then, completely dewatered (stored at −80° C. until measurement). To each well containing the cells, 200 μL of TG enzyme solution (1) was added. A reaction was allowed to proceed while keeping the cells warm at 37° C. for 10 minutes (free glycerol was removed). Then, the cells were torn away by pipetting, transferred to a centrifuge tube and centrifuged at 10,000 rpm×10 minutes. Then, the supernatant (7.5 μL) was transferred to a 96-well microplate. […] The resultant reaction product was subjected to measurement of absorbance at 550 nm. The content of triglyceride was calculated based on HDL-C180A as the reference (triglyceride concentration of HDL-C180A was 52.26 mg/dL).
Intracellular cholesterol was measured by use of Cholestest (registered trademark) CHO (Sekisui Medical Co., Ltd.) in accordance with the instruction by the manufacturer. […] The resultant reaction product was subjected to measurement of absorbance at 550 nm. The content of cholesterol was calculated based on HDL-C180A as the standard ([…] concentration of HDL-C180A was 152.67 mg/dL). […]

Turning to `CCC(C)(C)C(=O)O[C@H]1C[C@@H](C)C=C2C=C[C@H](C)[C@H](CC[C@@H]3C[C@@H](O)CC(=O)O3)[C@H]21` [simvastatin], the “human albumin content in the culture supernatant” value in the data set on PXB-cells [1] (simvastatin 0.1, 1, 10 μM, PXB-cells in medium B (DMSO (+))) is “no significant decrease”.

In the case of `C[S+](C)[O-]` [DMSO, dimethyl sulfoxide], the “secretion of total neutral fat (triglyceride) in lipoproteins, medium B (DMSO (+)) relative to medium C (DMSO (−))” value in the data set with PXB-cells [2] is reported as “about 9 times”. Further, the “number of fat droplets, medium B (DMSO (+)) compared to medium C (DMSO (−))” value with PXB-cells [3] is given as “about double”.

`O=C(NC1CCN(CCCCC2(C(=O)NCC(F)(F)F)c3ccccc3-c3ccccc32)CC1)c1ccccc1-c1ccc(C(F)(F)F)cc1` [lomitapide]: in the data set on PXB-cells [4], the “total cholesterol content in the culture supernatants” value is given as “significantly decreased” and the “total neutral fat (triglyceride) content in the culture supernatants” value was “significantly decreased”. Also, in the data set on PXB-cells [5], the “total cholesterol content in the cells” value was “no significant decrease” and the “total neutral fat (triglyceride) content in the cells” value is given as “no significant decrease”. In addition, in the data set with PXB-cells [1] (lomitapide 1, 10, 100 μM, PXB-cells in medium B (DMSO (+))), the “content of human albumin in the culture supernatant” value is “decreased depending on the addition amount”. Besides, the “toxicity (based on human albumin content)” value in the data set with PXB-cells [1] (lomitapide, high amount (1-100 μM tested), PXB-cells) was “toxic”.
